The values that follow come from patent US10316008B2, “KCNQ potassium channel agonist, and preparation method therefor and use thereof” (SHANGHAI INSTITUTE OF MATERIA MEDICA, CHINESE ACADEMY OF …, priority 2014, dated 2019).

Counter-ions that a name gives are not always drawn.

In one data set the test system is KCNQ potassium channel. Description: Whole-cell voltage-clamp recording in CHO-K1 cells transfected with KCNQ plasmid. The data set is classed as cell-based. To be noted: for I/I0: current enhancement factor, −10 mV testing voltage, compound concentration 10 μM, >1 activating, <1 inhibiting; for ΔV1/2: shift of V1/2, negative sign = left-ward shift of current activation curve, compound 10 μM, CHO-K1 cells. Here is the method: The culture medium for Chinese hamster oocytes (CHO-K1) (Culture Collection of Chinese Academy of Sciences): 50/50 DMEM/F-12 (Cellgro, Manassas, Va.), added with 10% fetal bovine serum (FBS) (Gibco, Australia) and 2 mM L-glutamic acid (Invitrogen). […] Lipofectamine 2000™ agent (Invitrogen) was used for Transfection according to the protocol thereof. GFP (green fluorescent protein) was cotransfected to be used as a indication of successful converting into KCNQ plasmid.
Whole-cell voltage-clamp recording was performed on an Axopatch-200B amplifier (Molecular Devices, Sunnyvale, Calif.) at room temperature. The electrode was made by drawing borosilicate glass capillary (World Precision Instruments, Sarasota, Fla.). The electric resistance of the electrode filled with an intracellular fluid is 3 to 5 MΩ. […] During the recording, an extracellular fluid was continuously perfused by using a BPS perfusion system (ALA Scientific Instruments, Westburg, N.Y.). The composition of the extracellular fluid (1 L) was as follows: 140 mM NaCl(Sigma), 5 mM KCl(Sigma), 2 mM CaCl2(Sigma), 1.5 mM MgCl2(Sigma), 10 mM HEPES(Sigma) and 10 mM glucose(Sigma) (pH was adjusted to 7.4 with NaOH). […] Series resistors compensate 60 to 80%. Up to date, multivoltage scheme was generally adopted, wherein the clamp voltage was set at −80 mV, stimulating voltage was a gradient voltage from −90 mV to 60 mV with interval of 10 mV, and the stimulating time for each voltage was 2000 ms.
V1/2 is the voltage at which 50% of cells were activated, ΔV1/2 is the shift amount of V1/2, negative sign (−) represents a left-ward shift of the current activation curve. I/I0 represents the current enhancement factor, wherein, I0 is the maximum induced current produced under stimulation of −10 mV testing voltage after administrating cells with blank extracellular fluid, I is the maximum induced current produced under stimulation of −10 mV testing voltage after administrating the drug (the compound concentration was 10 μM), I/I0>1 represents activating activity, and I/I0<1 represents inhibiting activity. N is the number of tested cells. NT represents non-tested.

The target of data set [1] is T1, KCNQ2 homotetramer channel (Homo sapiens, UniProt O43526).
T1 construct: expressed in transfected cells; host or cells: CHO-K1
T1 sequence (O43526 whole entry): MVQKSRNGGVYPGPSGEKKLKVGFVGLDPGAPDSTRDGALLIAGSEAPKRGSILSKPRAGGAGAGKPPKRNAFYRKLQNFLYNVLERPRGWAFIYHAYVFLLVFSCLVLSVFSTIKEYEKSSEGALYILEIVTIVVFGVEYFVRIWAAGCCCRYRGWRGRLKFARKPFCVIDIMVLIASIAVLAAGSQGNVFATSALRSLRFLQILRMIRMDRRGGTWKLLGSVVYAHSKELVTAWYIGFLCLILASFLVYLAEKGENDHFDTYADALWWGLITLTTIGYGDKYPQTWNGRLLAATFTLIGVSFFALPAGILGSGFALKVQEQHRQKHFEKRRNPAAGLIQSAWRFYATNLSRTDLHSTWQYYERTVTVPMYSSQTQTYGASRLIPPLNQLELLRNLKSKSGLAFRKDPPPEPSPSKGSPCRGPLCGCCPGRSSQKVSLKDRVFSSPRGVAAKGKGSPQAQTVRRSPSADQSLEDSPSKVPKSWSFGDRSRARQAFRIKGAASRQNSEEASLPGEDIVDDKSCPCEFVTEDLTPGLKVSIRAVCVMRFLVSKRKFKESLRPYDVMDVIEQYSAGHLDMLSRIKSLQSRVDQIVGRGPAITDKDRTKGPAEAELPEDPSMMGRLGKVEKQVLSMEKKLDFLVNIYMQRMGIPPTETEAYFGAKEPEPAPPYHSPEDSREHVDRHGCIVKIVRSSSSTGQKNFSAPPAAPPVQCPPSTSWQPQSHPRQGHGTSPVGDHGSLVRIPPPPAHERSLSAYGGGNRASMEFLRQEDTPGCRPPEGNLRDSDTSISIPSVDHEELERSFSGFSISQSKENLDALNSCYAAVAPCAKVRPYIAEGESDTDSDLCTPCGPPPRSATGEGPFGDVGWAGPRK
Description: KCNQ2 channel dose-response curve in CHO-K1 cells transfected with KCNQ2 plasmid. In kind it is cell-based. As to the method: The culture medium for Chinese hamster oocytes (CHO-K1) (Culture Collection of Chinese Academy of Sciences): 50/50 DMEM/F-12 (Cellgro, Manassas, Va.), added with 10% fetal bovine serum (FBS) (Gibco, Australia) and 2 mM L-glutamic acid (Invitrogen). Expression of KCNQ channels: 24 h before transfection, CHO-K1 spreaded on a dish with a diameter of 60 mm. Lipofectamine 2000™ agent (Invitrogen) was used for Transfection according to the protocol thereof. GFP (green fluorescent protein) was cotransfected to be used as a indication of successful converting into KCNQ plasmid.
Whole-cell voltage-clamp recording was performed on an Axopatch-200B amplifier (Molecular Devices, Sunnyvale, Calif.) at room temperature. The electrode was made by drawing borosilicate glass capillary (World Precision Instruments, Sarasota, Fla.). The electric resistance of the electrode filled with an intracellular fluid is 3 to 5 MΩ. The composition of the intracellular fluid (1 L) was as follows: 145 mM KCl(Sigma), 1 mM MgCl2(Sigma), 5 mM EGTA(Sigma), 10 mM HEPES(Sigma) and 5 mM MgATP(Sigma) (pH was adjusted to 7.3 with KOH). During the recording, an extracellular fluid was continuously perfused by using a BPS perfusion system (ALA Scientific Instruments, Westburg, N.Y.). The composition of the extracellular fluid (1 L) was as follows: 140 mM NaCl(Sigma), 5 mM KCl(Sigma), 2 mM CaCl2(Sigma), 1.5 mM MgCl2(Sigma), 10 mM HEPES(Sigma) and 10 mM glucose(Sigma) (pH was adjusted to 7.4 with NaOH). Electric signal was filtered at 1 kHz and further converted into digital signal by using pClamp 9.2 software (Molecular Devices, Sunnyvale, Calif.) in DigiData 1322A. Series resistors compensate 60 to 80%. Up to date, multivoltage scheme was generally adopted, wherein the clamp voltage was set at −80 mV, stimulating voltage was a gradient voltage from −90 mV to 60 mV with interval of 10 mV, and the stimulating time for each voltage was 2000 ms.
The experimental procedure was the same as that in Electrophysiological Example 1. […]

Data set [2] concerns convulsive mice induce by MES. Description: MES (maximum electroshock) induced convulsion model, oral perfusion. The data set is classed as in vivo, KM mice. Particulars: Mus musculus, 0.5 h; mice, oral perfusion, MES 30 mins after administration; read-out: ED50 (50% effective dose). An excerpt:
YLS-9A model physiological pharmaceutical electronic stimulator was used in the experiment to induce convulsion of mice, and specific parameters were set as follows: configuration 8, stimulating voltage: 160V, period of stimulation: 5.4 sec. Healthy KM mice (SPF level, male, body weight: 18 to 22 g) were selected for the experiment. After the ear tip of the mice was sufficiently wetted with physiological saline, the mice was electrically stimulated once with ear clip electrode, and tonic hind-limb seizure was deemed as indication of convulsion. The mice were screened one day before the experiment to weed out the dead mice and the ones without generalized tonic seizure. The qualified mice were caged randomly with access to water at liberty. Before the experiment started, the mice were fasted for 8 h.
The compounds to be tested were freshly formulated on the day of experiment. RTG hydrochloride was dissolved with ultrapure water to obtain a solution with desired concentration. K41.HCl and K43.HCl were formulated with 5% DMSO+95% of 1% Tween80, that is, a proper amount of the compound to be tested was weighted and, first, sufficiently dissolved in 5% DMSO, and then added with a desire volume of 1% Tween80 to be sufficiently suspended to form a suspension with a certain drug concentration. The mice screened one day before were randomly grouped with each group having 10 mice, marked, weighted and then administered with the compound to be tested or solvent (5% DMSO+95% (1% Tween 80)) by oral perfusion with administered volume of 0.2 ml/10 g. The dose range for each compound was 1 to 56 mg/kg for RTG, 1 to 40 mg/kg for K41.HCl, and 0.5 to 4 mg/kg for K43.HCl. 30 mins after administration, MES experiment was performed and the experimental parameters were the same as the above. The number of mice with generalized tonic-clonic convulsion in each group was recorded, the protection rate of each of the compounds to be tested on convulsive mice induce by MES was calculated and dose-response curve for each compound was plotted. The dose-response curve for each compound was obtained according to the analysis of Graphpad Prism 5 software, as shown in FIG. 3.

The conditions of data set [3]: data from FDA Pharmacology Review(s), Potiga tablets; cited from earlier work.
Data set [4] in a line: Rotarod experiment, motor coordination ability (acute neurotoxicity). In kind it is in vivo, KM mice. To be noted: both sexes, KM, mouse, in vivo; mice, oral perfusion, Rotarod 30 mins after administration; read-out: TD50 (50% acute neurotoxicity dose). Here is the method: (§1) YLS-4C Rotarod system was used in the experiment, wherein the diameter of the rod was 3 cm and the rotate speed was set at 6 rpm. Healthy KM mice (SPF level) were selected, wherein male and female were equal, the body weight was 18 to 22 g. One day before experiment, the mice were place on the rotarod for training and screening. The tail tip of mice was held to make them creep on the rotarod during the training. […] The mice that jumped on the rotarod or griped the rotarod were weed out. In addition, three time periods were set with 1 min for each. […] The qualified mice were randomly caged according to the gender, and allowed to eat and drink freely.
(§2) On the day of the experiment, each compound to be tested was freshly formulated by the same method as described in MES experiment. If the compound was not sufficiently suspended, the suspension was further mixed by ultrasonication for 20 min so as to make the compound sufficiently suspended. […] 30 mins after administration, Rotarod experiment was performed and the experiment parameters were the same as the above. The number of mice that fell off from the rorarod was recorded, and the influence of each compound on motor coordination ability of mice was analyzed. The curve for dose of each compound verse motor deficit (percentage) of mice for each compound was obtained according to the analysis of Graphpad Prism 5 software and was shown in FIG. 4.
For orientation: Falling from the rotarod earlier than controls is read as motor impairment.

Data set [5] deals with motor coordination ability of mice. Described as above. In kind it is in vivo, KM mice. To be noted: TD50 Rotarod / ED50 MES. Here is the method:
as §1, §2

A short description of data set [6]: Stability of solution exposed to air. To be noted: solution exposed to air (aqueous solution for RTG hydrochloride).

One may read the EC50 as the concentration giving half of the maximal effect. A lower EC50 goes with an effect from little substance. The ED50 is the dose at which the effect has come halfway, by size or by number of responders. As a reminder, the TD50 is the 50% point of the dose-response relation for the toxic effect studied.

For the molecule `C#CCN(Cc1ccc(F)cc1)c1ccc(NC(=O)OC)cc1C` [K40•HCl], in the data set with KCNQ potassium channel, the I/I0 is 1.40 ± 0.04 and the ΔV1/2 is recorded as −3.42 ± 1.54 mV.

On to `C#CCN(Cc1ccc(F)cc1)c1ccc(NC(=O)OC)c(C#N)c1` [K42•HCl], for which, in the data set on KCNQ potassium channel, the I/I0 stood at 0.52 ± 0.01 and the ΔV1/2 is −5.2 ± 0.7 mV.

For `C#CCN(Cc1ccc(F)cc1)c1c(C)cc(NC(=O)OC)cc1C` [K44•HCl], in the data set on KCNQ potassium channel, the I/I0 is on record as 0.72 ± 0.05 and the ΔV1/2 is given as 13.47 ± 2.13 mV.

Consider `C#CCN(Cc1ccc(F)cc1)c1ccc(NC(=O)OC)cc1OC` [K45•HCl], for which, in the data set on KCNQ potassium channel, the I/I0 is reported as 0.57 ± 0.01 and the ΔV1/2 is −5.1 ± 0.9 mV.

Take `C#CCN(Cc1ccc(F)cc1)c1ccc(NC(=O)OC)c(OC)c1` [K46•HCl]: in the data set with KCNQ potassium channel, the I/I0 is listed as 1.52 ± 0.55 and the ΔV1/2 is −6.5 ± 2.1 mV.

Turning to `[2H]C([2H])(C#C)N(Cc1ccc(F)cc1)c1ccc(NC(=S)OC)cc1` [K47•HCl, methyl 4-(N-parafluorobenzyl-N-3,3-dideuteriumpropargyl-amino)phenylaminothioformate], in the data set on KCNQ potassium channel, the I/I0 worked out at 2.10 ± 0.08 and the ΔV1/2 is listed as −18.10 ± 0.03 mV.

Turning to `C#CCN(Cc1ccc(F)cc1)c1ccc(NC(=O)OC)c(OC(F)(F)F)c1` [K48•HCl], in the data set on KCNQ potassium channel, the I/I0 is 1.24 ± 0.16 and the ΔV1/2 is −13.2 ± 1.5 mV.

For `C#CCN(Cc1ccc(F)cc1)c1ccc(NC(=S)OC)cc1` [K49•HCl, methyl 4-(N-parafluorobenzyl-N-propargyl-amino) phenylaminothioformate], in the data set with KCNQ potassium channel, the I/I0 is listed as 4.4 ± 1.6 and the ΔV1/2 was −22 ± 2.5 mV.

Take `C#CCN(Cc1ccc(F)cc1)c1ccc(NC(=O)N(C)OC)cc1` [K51•HCl]: in the data set on KCNQ potassium channel, the I/I0 was found to be 1.61 ± 0.08 and the ΔV1/2 is listed as −8.89 ± 1.12 mV.

Consider `C#CCN(Cc1ccc(F)cc1)c1ccc(NC(=O)COC)cc1` [K52•HCl, N-[4-(N-p-fluorobenzyl-N-propargyl-amino)-phenyl]-2-methoxyacetamide], for which, in the data set with KCNQ potassium channel, the I/I0 worked out at 5.80 ± 0.52 and the ΔV1/2 was −10.93 ± 1.86 mV.

`C#CCN(Cc1ccc(F)cc1)c1ccc(NC(=O)COCC)cc1` [K53•HCl]: in the data set with KCNQ potassium channel, the I/I0 was found to be 7.31 ± 1.09 and the ΔV1/2 is −14.81 ± 0.92 mV.

For the molecule `C#CCN(Cc1ccc(F)cc1)c1ccc(NC(=O)C2CCCO2)cc1` (stereo not shown) [K54•HCl], in the data set with KCNQ potassium channel, the I/I0 worked out at 7.55 ± 1.92 and the ΔV1/2 is given as −30.9 ± 4.1 mV.

Take `C#CCN(Cc1ccc(F)cc1)c1ccc(NC(=O)CN(C)C)cc1` [K55•HCl]: in the data set with KCNQ potassium channel, the I/I0 worked out at 1.72 ± 0.14 and the ΔV1/2 is listed as −10.76 ± 4.51 mV.

In the case of `C#CCN(Cc1ccc(F)cc1)c1ccc(NC(=O)CNC(C)=O)cc1` [K56•HCl], in the data set on KCNQ potassium channel, the I/I0 came to 1.10 ± 0.10 and the ΔV1/2 is given as −2.0 ± 1.3 mV.

For `C#CCN(Cc1ccc(F)cc1)c1ccc(NC(=O)CC(=O)OC)cc1` [K57•HCl], in the data set on KCNQ potassium channel, the I/I0 stood at 8.13 ± 2.57 and the ΔV1/2 is −31.55 ± 0.86 mV.

With `C#CCN(Cc1ccc(F)cc1)c1ccc(NC(=O)C2CCC(F)(F)CC2)cc1` [K58•HCl], in the data set on KCNQ potassium channel, the I/I0 was determined as 1.78 ± 0.19 and the ΔV1/2 is −33.68 ± 1.05 mV.

Take `CCOC(=O)Nc1ccc(NCc2ccc(F)cc2)cc1N` [RTG, retigabine, reference compound]: in data set [1], the concentration giving a half-maximal response (EC50) stood at 1320 nM. Besides, the median effective dose (ED50) in data set [2] is 21.8 mg/kg. In data set [3], the reported lethal dose is 100 mg/kg. The TD50 at 30 min in data set [4] came to 74.2 mg/kg. Further, in data set [5], the “P.I (Protective index)=TD50/ED50” value worked out at 3.40. The “stability of solution exposed to air” value in data set [6] is “quickly become blue and insoluble precipitate is formed”.

As for “methyl 4-(N-parafluorobenzyl-N-3-cyclopropyl propargyl-amino) phenylaminothioformate [K59•HCl]”, in the data set with KCNQ potassium channel, the I/I0 is 1.01 ± 0.13 and the ΔV1/2 is on record as −0.14 ± 2.33 mV.
